Results from patent US9408854B2, “Methods and systems for pharmacogenomic treatment of cardiovascular conditions” (ROSTAQUO S.P.A., priority 2009, dated 2016).

Experiments:
hypertensive patients = assay: Pharmacogenomic study: change of office systolic blood pressure (DSBP5_0) after 5 weeks of rostafuroxin vs placebo, by genotype; type: in vivo, human; conditions: 0.05 to 0.50 mg/day vs 1.5 to 5 mg/day
Na—K Pump and cSrc = assay: In vitro correction of the effect of mutated adducin or ouabain on Na-K pump and cSrc; type: biochemical; conditions: picomolar concentrations in vitro

Compound: C[C@]12CC[C@H](O)C[C@H]1CC[C@@H]1[C@@H]2CC[C@]2(C)[C@@](O)(c3ccoc3)CC[C@]12O [rostafuroxin, 17β-(3-furyl)-5β-androstane-3β,14β,17α-triol]
- drop of night blood pressure, low doses vs high doses (hypertensive patients): relevantly higher drop of night blood pressure as compared to high doses
- correction of the effect of mutated adducin or ouabain on Na—K Pump and cSrc (Na—K Pump and cSrc): able to selectively correct the effect of mutated adducin or ouabain on Na—K Pump and cSrc, without blocking the effect of wild adducin
